We go through 9 compounds from PubChem BioAssay (NCI).

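Following 48 hours of exposure in 96-well plates, responses at five concentrations were used to interpolate endpoints linearly. At the GI50, growth is halved. At the TGI there is no net growth.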

Common to all, as to test: growth of human tumour cells (NCI), 48 h
In assay [1] the test system is A498 renal.
The test system of assay [2] is ACHN renal.
In assay [3] the test system is COLO 205 colon.
Assay [4] has as its system HCC-2998 colon.
Assay [5] deals with KM12 colon.
The subject of assay [6] is NCI-H23 lung.
In assay [7] the test system is NCI-H460 lung.
In assay [8] the test system is OVCAR-3 ovarian.
The subject of assay [9] is SF-539 CNS.
The subject of assay [10] is UO-31 renal.

Regarding `C=C(CN1CCc2ccccc2C1)c1ccc(/C=C/C(=O)Nc2ccccc2N)cc1`, the GI50 was 16.4 µM in [1]; 5.4 µM in assay [2]; 32.2 µM in assay [3]; 2.04 µM in assay [4]; 0.965 µM in assay [5]; 9.55 µM in [6]. The GI50 in assay [7] was 3.18 µM; in assay [8], 5.59 µM; in assay [9], 13 µM; in assay [10] it was 0.437 µM. For the same compound, the TGI in assay [1] is 36.8 µM; in assay [2], over 100 µM; in assay [3], over 100 µM; in [4], 34.5 µM; in [5], over 100 µM; in assay [6], over 100 µM. Further, the TGI was 38.1 µM in [7], 51 µM in assay [8], over 100 µM in assay [9] and over 100 µM in assay [10].

As to `CCN(Cc1ccc(F)cc1F)c1ccc(CO)c(Cl)c1`, the GI50 in assay [1] is 0.0316 µM; in [2] it was 14.1 µM; in assay [3], 3.31 µM; in [4], 4.26 µM; in assay [5], 16.6 µM; in assay [6], 9.05 µM. Besides, the GI50 in assay [7] is 0.259 µM; in assay [8] it was 0.389 µM; in assay [9], 16.1 µM; in assay [10], 4.52 µM. For the same compound, the TGI in [1] was determined as 0.136 µM; in assay [2], 38.3 µM; in [3] it was 9.24 µM; in assay [4], 20.4 µM; in assay [5], 32.9 µM; in assay [6], 24.3 µM. Besides, the TGI worked out at 6.68 µM in assay [7], 2.07 µM in assay [8], 31.7 µM in assay [9] and 43.8 µM in assay [10].

Regarding `O=C1CC2(CCCc3sccc32)C(=O)N1` (stereo not given), the TGI in assay [1], in [2], in assay [3], in assay [4], in assay [5] and in assay [6] was over 100 µM each time. In addition, the TGI in [7], in assay [8], in assay [9] and in [10] was over 100 µM each time.

As for `CC(C)(C)c1ccc(Oc2ccc(C#N)c(C#N)c2)c(C(C)(C)C)c1`, the TGI in assay [1] is over 100 µM; in assay [2], over 100 µM; in assay [3] it was over 59.1 µM; in assay [4], over 100 µM; in assay [5], over 100 µM; in assay [6], over 100 µM. Further, the TGI in [7] is over 71.1 µM; in assay [8] it was over 100 µM; in [9] it was over 100 µM; in assay [10] it was over 77.7 µM.

For `O=P(Oc1ccccc1)(Oc1ccccc1)C(O)c1ccccc1` (stereo not given), the GI50 in assay [1] is 34.8 µM; in [2] it was over 100 µM; in [3], 35 µM; in [4], over 100 µM; in assay [5], 51 µM; in assay [6] it was over 100 µM. Further, the GI50 was over 100 µM in assay [7], 43.9 µM in assay [8], over 100 µM in [9] and 29.8 µM in assay [10]. Besides, the TGI in assay [1], in assay [2], in assay [3], in assay [4], in assay [5] and in [6] was over 100 µM each time. For the same compound, the TGI in assay [7], in [8], in assay [9] and in assay [10] was over 100 µM in each case.

On to `COc1cccc(-c2nc(-c3ccc(NS(=O)(=O)c4ccccc4)cc3)[nH]c2-c2ccnc(Br)c2)c1`, for which the GI50 in assay [1] is 1.25 µM; in assay [2], 2.6 µM; in [3], 2.66 µM; in assay [4], 2.12 µM; in assay [5] it was 2.65 µM; in assay [6] it was 3.06 µM. Also, the GI50 in assay [7] was 2.85 µM; in [8], 3.03 µM; in [9], 2.53 µM; in [10] it was 2.29 µM. Also, the TGI was 5.03 µM in assay [1]; over 100 µM in assay [2]; 12.4 µM in assay [3]; 4.71 µM in [4]; 8.74 µM in assay [5]; 17.2 µM in assay [6]. Further, the TGI came to 8.71 µM in assay [7], 17.7 µM in [8], 8.03 µM in assay [9] and 6.89 µM in [10].

For the compound `COCC1N=C(c2ccc(OC)c(OCc3ccccc3)c2OC)O[C@H]1c1ccccc1` (stereo not given in full), the TGI in [1] is 79.7 µM; in assay [2] it was 52.4 µM; in assay [3], 41.8 µM; in assay [4], over 100 µM; in assay [5] it was 96.2 µM; in assay [6], over 100 µM. The TGI in [7] stood at 35 µM; in [8], 55 µM; in assay [9] it was 35.8 µM; in assay [10], 30.1 µM.

Turning to `N#CC12CCC(O)C(CC1)C2=O` (stereo not given), the TGI in assay [1], in assay [2], in [3], in assay [4], in assay [5] and in assay [6] was over 100 µM each time. The TGI in assay [7], in [8], in assay [9] and in [10] was over 100 µM throughout.

Take `CCOC(=O)Oc1c(OC)cc(C(=O)c2ccc(OC)c(OC(=O)CCl)c2OC)cc1OC`: the GI50 in [1] was 3 µM; in [2], 3.66 µM; in assay [3], 9.57 µM; in assay [4], 3.36 µM; in [5], 0.543 µM; in assay [6], 3.86 µM. Further, the GI50 was 2.09 µM in assay [7], 0.414 µM in assay [8], 0.805 µM in [9] and 3.07 µM in assay [10]. Moreover, the TGI in assay [1] was 16.6 µM; in assay [2] it was over 100 µM; in [3] it was 66.7 µM; in [4], over 100 µM; in [5], over 100 µM; in assay [6], over 100 µM. In addition, the TGI in assay [7] was 44.9 µM; in [8], 23 µM; in [9] it was 6.38 µM; in assay [10], over 100 µM.
